In patent publication US20240002393A1, “SUBSTITUTED BENZO[f][l ,2,4JTRIAZOL0[4,3-a][l ,4J[…] GABA A GAMMA! POSITIVE ALLOSTERIC MODULATORS” (Hoffmann-La Roche Inc., priority 2020, published 2024):

Columns and labels:
h-GABA-A α2β2γ1 = h-GABA-A α2β2γ1 (Homo sapiens (Human), UniProt P47869+Q8N1C3); experiment: Two-electrode voltage clamp electrophysiology in Xenopus oocytes expressing GABAA receptors; assay type: cell-based; conditions: for Efficacy (GABA)%: % modulation of GABA EC20 = 100*(Fold increase−1), compound at 30-fold Ki; for Fold increase h-GABA-A α2β2γ1 oocyte @ 30-fold Ki: GABA EC20, test compound at about 30-fold its Ki α2β2γ1, at least 3 oocytes
Procedure, shortened: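 Oocytes injected with α2β2γ1 subunit mRNA were recorded on days 3–5 by two-electrode voltage clamp at −80 mV, room temperature, pH 7.4 superfusion. Compound effect on GABA EC20 current computed point by point against a control GABA response; extremum expressed as % modulation of GABA EC20, n≥3 oocytes.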

[1] = molecular target: human GABAA α1β3γ2 receptor (Homo sapiens (Human), UniProt P14867+P18507); experiment: Radioligand binding assay, [3H]Flumazenil competition, γ2-containing GABAA subtypes; conditions: HEK293F membranes, [3H]Flumazenil 1 nM, mean of two determinations; read-out: Ki h-GABAA α1β3γ2
Procedure, shortened: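 Competition with [3H]Flumazenil (81.1 Ci/mmol) for binding to HEK293F cells transiently expressing human α1β3γ2 receptors, prepared in Mannitol Buffer pH 7.2-7.4. Incubated 1 hour at 4° C to equilibrium, filtered, washed with ice-cold 50 mM Tris pH 7.5, counted by liquid scintillation. Ki values are means of two determinations.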

Row | Structure (SMILES) | Efficacy (GABA)% (h-GABA-A α2β2γ1) [%] | Fold increase h-GABA-A α2β2γ1 oocyte @ 30-fold Ki (h-GABA-A α2β2γ1) | Ki [1] [µM]
1 | C[C@@H]1N=C(c2c(F)cccc2F)c2c(ccc(C(F)(F)F)c2Cl)-n2c(CO)nnc21 [Example 103, [(4S)-7-chloro-6-(2,6-difluorophenyl)-4-methyl-8-(trifluoromethyl)-4H-[1,2,4]triazolo[4,3-a][1,4]benzodiazepin-1-yl]methanol] | 123 | 2.23 | 3.38
2 | COC[C@@H]1N=C(c2c(F)cccc2F)c2c(ccc(C(F)(F)F)c2Cl)-n2c(C)nnc21 [Example 105, (4R)-7-chloro-6-(2,6-difluorophenyl)-4-(methoxymethyl)-1-methyl-8-(trifluoromethyl)-4H-[1,2,4]triazolo[4,3-a][1,4]benzodiazepine] | 75 | 1.75 | 7.34
3 | Cc1nnc2n1-c1ccc(C(F)(F)F)c(Cl)c1C(c1c(F)cccc1F)=N[C@H]2CO [Example 106, [(4R)-7-chloro-6-(2,6-difluorophenyl)-1-methyl-8-(trifluoromethyl)-4H-[1,2,4]triazlo[4,3-a][1,4]benzodiazepin-4-yl]methanol] | 121 | 2.21 | 7.64
4 | C[C@@H]1N=C(c2c(F)cccc2F)c2c(ccc(C(F)(F)F)c2Cl)-n2cnnc21 [Example 107, (4S)-7-chloro-6-(2,6-difluorophenyl)-4-methyl-8-(trifluoromethyl)-4H-[1,2,4]triazolo[4,3-a][1,4]benzodiazepine] | 147 | 2.47 | 3.53
5 | CCc1ccc2c(c1Cl)C(c1c(F)cccc1F)=N[C@@H](C)c1nnc(C)n1-2 [Example 109, (4S)-7-chloro-6-(2,6-difluorophenyl)-8-ethyl-1,4-dimethyl-4H-[1,2,4]triazolo[4,3-a][1,4]benzodiazepine] | 230 | 3.30 | 0.754
